Measurements as given in ChEMBL document CHEMBL3997792, “Identification of the First Selective Activin Receptor-Like Kinase 1 Inhibitor, a Reversible Version of L-783277” (J Med Chem, 2017).
pIC50: −log10 of the molar value. Calls of active or inactive are those of the source. No cut-off for these calls is given here.

Assays:
[1] = molecular target: T1, Activin receptor type-1-like (Homo sapiens, UniProt P37023); settings: 1 uM
Description: Inhibition of human ALK1 at 1 uM using casein as substrate in presence of [gamma-33P]-ATP by scintillation counting method relative to control

[2] = molecular target: T2, TGF-beta receptor type-1 (Mus musculus, UniProt Q64729); experiment: Inhibition of ALK5 in mouse C2C12 cells assessed as decrease in TGFbeta1-induced Smad1/5 phosphorylation at 10 uM by Western blot method; type: cell-based
T2 sequence (Q64729 whole entry): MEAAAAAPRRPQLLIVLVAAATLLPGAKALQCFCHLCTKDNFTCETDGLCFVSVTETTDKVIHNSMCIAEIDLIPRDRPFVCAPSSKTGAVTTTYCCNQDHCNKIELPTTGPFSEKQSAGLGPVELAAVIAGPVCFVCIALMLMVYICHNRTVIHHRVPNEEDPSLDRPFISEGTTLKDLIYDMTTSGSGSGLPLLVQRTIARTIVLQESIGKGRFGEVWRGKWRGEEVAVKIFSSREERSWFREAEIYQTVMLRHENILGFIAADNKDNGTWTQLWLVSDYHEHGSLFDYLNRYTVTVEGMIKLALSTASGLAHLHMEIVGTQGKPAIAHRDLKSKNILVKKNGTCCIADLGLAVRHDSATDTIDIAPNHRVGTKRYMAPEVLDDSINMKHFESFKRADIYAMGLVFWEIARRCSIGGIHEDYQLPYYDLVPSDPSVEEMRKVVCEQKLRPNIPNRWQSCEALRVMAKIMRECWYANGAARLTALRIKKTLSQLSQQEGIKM

[3] = molecular target: T3, Vascular endothelial growth factor receptor 2 (Homo sapiens, UniProt P35968); settings: 1 uM
Description: Inhibition of human KDR at 1 uM using poly[Glu:Tyr] (4:1) as substrate in presence of [gamma-33P]-ATP by scintillation counting method relative to control

[4] = molecular target: T4, Activin receptor type-1 (Homo sapiens, UniProt Q04771); experiment: Inhibition of human ALK2 using casein as substrate in presence of 10 uM ATP by radiometric kinase assay
[5] = molecular target: Activin receptor type-1B (Homo sapiens, UniProt P36896); experiment: Inhibition of human ALK4 using casein as substrate in presence of 10 uM ATP by radiometric kinase assay
[6] = molecular target: T5, Activin receptor type-1-like (Mus musculus) (UniProt Q61288); experiment: Inhibition of BMP9-stimulated ALK1 in mouse C2C12 cells assessed as decrease in ERK1/2 phosphorylation at 0.1 to 10 uM pretreated for 2 hrs followed by BMP9-stimulation after 30 mins by western blot analysis; type: cell-based
T5 sequence (whole entry): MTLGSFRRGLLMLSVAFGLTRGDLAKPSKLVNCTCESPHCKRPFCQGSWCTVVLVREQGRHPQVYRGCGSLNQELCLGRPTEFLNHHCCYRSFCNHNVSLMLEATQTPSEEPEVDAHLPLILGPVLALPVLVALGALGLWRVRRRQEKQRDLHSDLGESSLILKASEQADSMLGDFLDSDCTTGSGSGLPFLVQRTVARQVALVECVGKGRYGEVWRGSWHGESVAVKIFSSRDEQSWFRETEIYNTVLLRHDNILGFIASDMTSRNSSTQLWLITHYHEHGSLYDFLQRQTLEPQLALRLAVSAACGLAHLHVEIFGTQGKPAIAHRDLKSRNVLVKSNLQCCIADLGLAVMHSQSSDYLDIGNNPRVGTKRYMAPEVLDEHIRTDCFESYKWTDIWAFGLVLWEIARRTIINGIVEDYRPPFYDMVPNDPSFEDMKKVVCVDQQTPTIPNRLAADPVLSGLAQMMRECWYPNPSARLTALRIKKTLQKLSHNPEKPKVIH

[7] = system: MDA-MB-231; experiment: Antiproliferative activity against human MDA-MB-231 cells up to 100 uM after 72 hrs by CellTiter 96 non-radioactive cell proliferation assay; type: cell-based; settings: mda-mb-231, 72 h
[8] = molecular target: ALK6 (bone morphogenetic protein receptor type-1B) (Homo sapiens, UniProt O00238); experiment: Inhibition of human ALK6 at 10 uM using casein as substrate in presence of 200 uM ATP by radiometric kinase assay relative to control; settings: probe casein
[9] = system: HUVEC; experiment: Angiogenic activity in HUVEC assessed as increase in angiogenic sprouting in presence of recombinant human VEGF165 by microfluidic chip based 3D angiogenesis assay; type: functional, cell-based
[10] = molecular target: T6, Vascular endothelial growth factor receptor 3 (Homo sapiens, UniProt P35916); settings: 1 uM
Description: Inhibition of human FLT4 at 1 uM using poly[Glu:Tyr] (4:1) as substrate in presence of [gamma-33P]-ATP by scintillation counting method relative to control

[11] = molecular target: T6, Vascular endothelial growth factor receptor 3; experiment: Inhibition of human FLT4 using poly[Glu:Tyr] (4:1) as substrate in presence of [gamma-33P]-ATP by scintillation counting method
[12] = molecular target: T5, Activin receptor type-1-like (Mus musculus); experiment: Inhibition of ALK1 in mouse C2C12 cells assessed as downregulation of BMP9-induced Id1 protein levels at 10 uM pretreated for 2 hrs followed by BMP9-stimulation after 30 mins by western blot analysis; type: cell-based
[13] = molecular target: ALK4 (activin receptor type-1B) (Homo sapiens, UniProt P36896); experiment: Inhibition of human ALK4 at 10 uM using casein as substrate in presence of 200 uM ATP by radiometric kinase assay relative to control; settings: human ALK4 kinase (activin receptor type-1B), probe casein
[14] = system: HUVEC; experiment: Angiogenic activity in HUVEC assessed as increase in vessel areas at 2 to 50 uM by microfluidic chip based 3D angiogenesis assay; type: functional, cell-based; settings: Homo sapiens
[15] = molecular target: T5, Activin receptor type-1-like (Mus musculus); experiment: Inhibition of ALK1 in mouse C2C12 cells assessed as downregulation of BMP9-induced Id1 mRNA levels at 10 uM pretreated for 2 hrs followed by BMP9-stimulation after 30 mins by RT-PCR analysis; type: cell-based
[16] = molecular target: TGF-beta receptor type-1 (Homo sapiens, UniProt P36897); experiment: Inhibition of human ALK5 using casein as substrate in presence of 10 uM ATP by radiometric kinase assay
[17] = molecular target: Dual specificity mitogen-activated protein kinase kinase 6 (Homo sapiens) (UniProt P52564); experiment: Inhibition of human MKK6 at 1 uM using p38a as substrate in presence of [gamma-33P]-ATP by scintillation counting method relative to control
[18] = molecular target: Dual specificity mitogen-activated protein kinase kinase 6 (Homo sapiens, UniProt P52564); experiment: Inhibition of human MKK6 using p38a as substrate in presence of [gamma-33P]-ATP by scintillation counting method
[19] = molecular target: Bone morphogenetic protein receptor type-1B (Homo sapiens, UniProt O00238); experiment: Inhibition of human ALK6 using casein as substrate in presence of 10 uM ATP by radiometric kinase assay
[20] = molecular target: T3, Vascular endothelial growth factor receptor 2; experiment: Inhibition of human KDR using poly[Glu:Tyr] (4:1) as substrate in presence of [gamma-33P]-ATP by scintillation counting method
[21] = molecular target: T1, Activin receptor type-1-like; experiment: Inhibition of human ALK1 using casein as substrate in presence of 200 uM ATP by radiometric kinase assay
[22] = molecular target: T1, Activin receptor type-1-like; experiment: Inhibition of human ALK1 using casein as substrate in presence of 10 uM ATP by radiometric kinase assay
[23] = molecular target: Receptor-type tyrosine-protein kinase FLT3 (Homo sapiens) (UniProt P36888); settings: 1 uM
[24] = molecular target: T4, Activin receptor type-1; experiment: Inhibition of human ALK2 using casein as substrate in presence of 200 uM ATP by radiometric kinase assay
[25] = system: HUVEC; experiment: Angiogenic activity in HUVEC assessed as increase in sprout length at 2 to 50 uM by microfluidic chip based 3D angiogenesis assay; type: functional, cell-based; settings: Homo sapiens
[26] = molecular target: ALK3 (bone morphogenetic protein receptor type-1A) (Homo sapiens, UniProt P36894); experiment: Inhibition of human ALK3 at 10 uM using casein as substrate in presence of 200 uM ATP by radiometric kinase assay relative to control; settings: probe casein
[27] = system: HUVEC; experiment: Angiogenic activity in HUVEC assessed as increase in vascular endothelial tube formation incubated for 6 hrs measured every 3 hrs by matrigel based light microscopic analysis; type: functional, cell-based; settings: Homo sapiens
[28] = molecular target: T1, Activin receptor type-1-like; settings: 1 uM; remark: listed apart in the source
Description: Inhibition of ALK1 in human A375 cells assessed as decrease in MEK1/2 phosphorylation at 1 uM by western blot analysis

[29] = molecular target: T5, Activin receptor type-1-like (Mus musculus); experiment: Inhibition of BMP9-stimulated ALK1 in mouse C2C12 cells assessed as decrease in p38 phosphorylation at 0.1 to 10 uM pretreated for 2 hrs followed by BMP9-stimulation after 30 mins by western blot analysis; type: cell-based
[30] = molecular target: T5, Activin receptor type-1-like (Mus musculus); experiment: Inhibition of BMP9-stimulated ALK1 in mouse C2C12 cells assessed as decrease in MEK phosphorylation at 0.1 to 10 uM pretreated for 2 hrs followed by BMP9-stimulation after 30 mins by western blot analysis; type: cell-based
[31] = molecular target: Bone morphogenetic protein receptor type-1A (Homo sapiens, UniProt P36894); experiment: Inhibition of human ALK3 using casein as substrate in presence of 10 uM ATP by radiometric kinase assay
[32] = molecular target: T5, Activin receptor type-1-like (Mus musculus); experiment: Inhibition of BMP9-stimulated ALK1 in mouse C2C12 cells assessed as reduction in Smad1/5 phosphorylation at 10 uM pretreated for 2 hrs followed by BMP9-stimulation after 30 mins by western blot analysis relative to control; type: cell-based
[33] = system: HUVEC; experiment: Angiogenic activity in HUVEC assessed as increase in angiogenic sprouting at 2 to 50 uM by microfluidic chip based 3D angiogenesis assay; type: functional, cell-based; settings: Homo sapiens
[34] = molecular target: T2, TGF-beta receptor type-1; experiment: Inhibition of ALK5 in mouse C2C12 cells assessed as decrease in TGFbeta1-induced Smad2/3 phosphorylation at 0.1 to 10 uM by Western blot method; type: cell-based
[35] = molecular target: ALK5 (TGF-beta receptor type-1) (Homo sapiens, UniProt P36897); experiment: Inhibition of human ALK5 at 10 uM using casein as substrate in presence of 200 uM ATP by radiometric kinase assay relative to control; settings: human ALK5 kinase (TGF-beta receptor type-1), probe casein
[36] = molecular target: T1, Activin receptor type-1-like; experiment: Inhibition of human ALK1 using casein as substrate in presence of [gamma-33P]-ATP by scintillation counting method
[37] = molecular target: T5, Activin receptor type-1-like (Mus musculus); experiment: Inhibition of BMP9-stimulated ALK1 in mouse C2C12 cells assessed as decrease in AKT phosphorylation at S473 at 0.1 to 10 uM pretreated for 2 hrs followed by BMP9-stimulation after 30 mins by western blot analysis; type: cell-based
[38] = molecular target: T5, Activin receptor type-1-like (Mus musculus); experiment: Inhibition of BMP9-stimulated ALK1 in mouse C2C12 cells assessed as reduction in Smad1/5 phosphorylation at 0.1 to 1 uM pretreated for 2 hrs followed by BMP9-stimulation after 30 mins by western blot analysis; type: cell-based

T1 sequence (P37023 whole entry): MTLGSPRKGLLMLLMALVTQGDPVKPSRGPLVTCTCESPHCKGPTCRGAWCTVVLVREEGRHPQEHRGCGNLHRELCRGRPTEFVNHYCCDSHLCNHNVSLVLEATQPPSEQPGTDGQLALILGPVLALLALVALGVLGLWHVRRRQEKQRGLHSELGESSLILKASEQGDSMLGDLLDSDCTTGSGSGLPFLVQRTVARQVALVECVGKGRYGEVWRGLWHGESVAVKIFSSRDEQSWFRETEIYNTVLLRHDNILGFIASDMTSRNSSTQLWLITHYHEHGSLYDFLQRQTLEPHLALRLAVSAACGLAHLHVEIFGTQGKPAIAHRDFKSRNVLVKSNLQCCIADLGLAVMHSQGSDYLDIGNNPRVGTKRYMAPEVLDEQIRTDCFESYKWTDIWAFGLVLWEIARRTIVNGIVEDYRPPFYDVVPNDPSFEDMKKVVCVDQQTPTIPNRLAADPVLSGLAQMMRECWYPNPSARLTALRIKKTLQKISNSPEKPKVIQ
T6 sequence (P35916 whole entry): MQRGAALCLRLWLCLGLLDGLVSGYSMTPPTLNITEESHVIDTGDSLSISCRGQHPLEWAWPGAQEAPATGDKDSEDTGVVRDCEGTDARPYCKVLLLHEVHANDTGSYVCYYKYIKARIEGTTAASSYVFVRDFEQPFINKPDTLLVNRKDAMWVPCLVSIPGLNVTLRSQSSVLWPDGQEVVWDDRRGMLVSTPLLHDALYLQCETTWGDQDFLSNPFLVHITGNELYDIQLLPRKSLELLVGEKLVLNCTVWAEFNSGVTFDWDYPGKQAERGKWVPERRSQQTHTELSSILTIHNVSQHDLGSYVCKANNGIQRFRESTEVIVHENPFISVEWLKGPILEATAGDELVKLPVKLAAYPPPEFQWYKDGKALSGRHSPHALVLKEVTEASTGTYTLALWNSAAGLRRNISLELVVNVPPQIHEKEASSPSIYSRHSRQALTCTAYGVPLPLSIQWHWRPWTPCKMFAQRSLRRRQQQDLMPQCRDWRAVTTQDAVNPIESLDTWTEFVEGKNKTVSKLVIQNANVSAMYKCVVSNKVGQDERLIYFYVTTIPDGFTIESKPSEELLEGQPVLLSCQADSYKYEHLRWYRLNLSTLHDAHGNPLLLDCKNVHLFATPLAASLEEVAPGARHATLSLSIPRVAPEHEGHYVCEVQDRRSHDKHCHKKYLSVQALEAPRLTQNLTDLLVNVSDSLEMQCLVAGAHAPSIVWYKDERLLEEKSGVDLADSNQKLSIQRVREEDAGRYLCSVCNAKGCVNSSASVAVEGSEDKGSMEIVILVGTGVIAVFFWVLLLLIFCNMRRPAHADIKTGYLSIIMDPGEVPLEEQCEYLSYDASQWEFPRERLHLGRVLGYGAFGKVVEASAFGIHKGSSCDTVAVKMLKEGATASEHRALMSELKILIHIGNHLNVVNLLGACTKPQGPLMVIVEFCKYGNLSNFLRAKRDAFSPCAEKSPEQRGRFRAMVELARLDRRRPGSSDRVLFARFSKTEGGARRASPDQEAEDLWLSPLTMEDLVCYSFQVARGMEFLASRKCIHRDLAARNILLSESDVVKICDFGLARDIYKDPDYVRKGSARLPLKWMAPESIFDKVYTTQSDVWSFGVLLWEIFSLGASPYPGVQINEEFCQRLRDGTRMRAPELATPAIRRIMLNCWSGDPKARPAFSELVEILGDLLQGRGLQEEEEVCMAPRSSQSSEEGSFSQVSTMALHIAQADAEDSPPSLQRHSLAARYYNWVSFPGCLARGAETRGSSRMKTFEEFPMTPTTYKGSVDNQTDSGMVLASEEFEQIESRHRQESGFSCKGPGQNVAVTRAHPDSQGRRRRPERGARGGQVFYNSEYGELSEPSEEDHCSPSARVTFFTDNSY
T4 sequence (Q04771 whole entry): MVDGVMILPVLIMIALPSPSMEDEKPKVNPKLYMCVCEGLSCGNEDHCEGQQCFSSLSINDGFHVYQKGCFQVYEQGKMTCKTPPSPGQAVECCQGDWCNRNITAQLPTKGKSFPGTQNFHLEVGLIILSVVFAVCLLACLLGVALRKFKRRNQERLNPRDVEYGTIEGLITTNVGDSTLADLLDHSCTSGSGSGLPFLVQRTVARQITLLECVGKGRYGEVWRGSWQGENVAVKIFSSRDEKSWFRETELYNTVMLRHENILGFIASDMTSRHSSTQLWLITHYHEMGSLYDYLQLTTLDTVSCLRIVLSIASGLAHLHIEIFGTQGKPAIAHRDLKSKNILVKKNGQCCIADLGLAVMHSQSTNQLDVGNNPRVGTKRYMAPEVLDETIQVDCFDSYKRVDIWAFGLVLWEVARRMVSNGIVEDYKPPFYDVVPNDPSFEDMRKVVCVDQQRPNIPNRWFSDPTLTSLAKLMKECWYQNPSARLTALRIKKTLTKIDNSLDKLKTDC
T3 sequence (P35968 whole entry): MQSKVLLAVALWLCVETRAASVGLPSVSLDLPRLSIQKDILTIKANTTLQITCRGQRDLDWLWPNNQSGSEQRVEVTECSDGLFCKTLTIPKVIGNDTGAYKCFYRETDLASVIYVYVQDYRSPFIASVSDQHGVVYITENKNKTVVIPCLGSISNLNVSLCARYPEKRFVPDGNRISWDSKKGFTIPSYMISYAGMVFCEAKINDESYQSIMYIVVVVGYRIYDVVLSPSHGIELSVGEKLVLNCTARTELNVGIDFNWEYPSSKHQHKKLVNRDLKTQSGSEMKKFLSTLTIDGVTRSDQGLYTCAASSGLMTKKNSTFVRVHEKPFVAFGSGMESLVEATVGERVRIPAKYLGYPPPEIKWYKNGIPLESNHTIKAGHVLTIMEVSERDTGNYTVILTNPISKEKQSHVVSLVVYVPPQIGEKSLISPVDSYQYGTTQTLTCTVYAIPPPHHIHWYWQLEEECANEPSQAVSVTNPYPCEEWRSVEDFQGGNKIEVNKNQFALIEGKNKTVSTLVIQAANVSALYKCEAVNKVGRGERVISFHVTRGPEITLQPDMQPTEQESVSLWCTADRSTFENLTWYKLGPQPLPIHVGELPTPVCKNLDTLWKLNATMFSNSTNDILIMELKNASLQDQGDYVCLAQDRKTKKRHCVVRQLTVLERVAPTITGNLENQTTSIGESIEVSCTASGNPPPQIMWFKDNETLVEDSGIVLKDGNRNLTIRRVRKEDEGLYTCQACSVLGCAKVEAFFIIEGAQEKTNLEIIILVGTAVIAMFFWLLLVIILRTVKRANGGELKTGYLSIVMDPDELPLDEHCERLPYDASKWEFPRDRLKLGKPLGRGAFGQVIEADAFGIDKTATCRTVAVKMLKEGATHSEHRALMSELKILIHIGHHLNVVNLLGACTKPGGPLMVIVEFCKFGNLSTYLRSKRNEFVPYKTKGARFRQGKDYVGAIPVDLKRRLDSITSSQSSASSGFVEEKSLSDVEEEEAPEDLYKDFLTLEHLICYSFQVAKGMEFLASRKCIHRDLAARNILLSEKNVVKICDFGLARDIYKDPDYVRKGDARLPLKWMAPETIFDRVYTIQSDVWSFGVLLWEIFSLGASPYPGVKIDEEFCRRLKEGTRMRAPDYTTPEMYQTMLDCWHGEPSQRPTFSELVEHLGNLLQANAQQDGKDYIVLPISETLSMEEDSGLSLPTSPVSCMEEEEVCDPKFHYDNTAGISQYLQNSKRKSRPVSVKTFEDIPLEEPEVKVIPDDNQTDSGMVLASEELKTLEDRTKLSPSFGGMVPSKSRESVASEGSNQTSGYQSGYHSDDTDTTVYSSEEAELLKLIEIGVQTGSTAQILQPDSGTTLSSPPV
Receptor-type tyrosine-protein kinase FLT3 (Homo sapiens), sequence (P36888 whole entry): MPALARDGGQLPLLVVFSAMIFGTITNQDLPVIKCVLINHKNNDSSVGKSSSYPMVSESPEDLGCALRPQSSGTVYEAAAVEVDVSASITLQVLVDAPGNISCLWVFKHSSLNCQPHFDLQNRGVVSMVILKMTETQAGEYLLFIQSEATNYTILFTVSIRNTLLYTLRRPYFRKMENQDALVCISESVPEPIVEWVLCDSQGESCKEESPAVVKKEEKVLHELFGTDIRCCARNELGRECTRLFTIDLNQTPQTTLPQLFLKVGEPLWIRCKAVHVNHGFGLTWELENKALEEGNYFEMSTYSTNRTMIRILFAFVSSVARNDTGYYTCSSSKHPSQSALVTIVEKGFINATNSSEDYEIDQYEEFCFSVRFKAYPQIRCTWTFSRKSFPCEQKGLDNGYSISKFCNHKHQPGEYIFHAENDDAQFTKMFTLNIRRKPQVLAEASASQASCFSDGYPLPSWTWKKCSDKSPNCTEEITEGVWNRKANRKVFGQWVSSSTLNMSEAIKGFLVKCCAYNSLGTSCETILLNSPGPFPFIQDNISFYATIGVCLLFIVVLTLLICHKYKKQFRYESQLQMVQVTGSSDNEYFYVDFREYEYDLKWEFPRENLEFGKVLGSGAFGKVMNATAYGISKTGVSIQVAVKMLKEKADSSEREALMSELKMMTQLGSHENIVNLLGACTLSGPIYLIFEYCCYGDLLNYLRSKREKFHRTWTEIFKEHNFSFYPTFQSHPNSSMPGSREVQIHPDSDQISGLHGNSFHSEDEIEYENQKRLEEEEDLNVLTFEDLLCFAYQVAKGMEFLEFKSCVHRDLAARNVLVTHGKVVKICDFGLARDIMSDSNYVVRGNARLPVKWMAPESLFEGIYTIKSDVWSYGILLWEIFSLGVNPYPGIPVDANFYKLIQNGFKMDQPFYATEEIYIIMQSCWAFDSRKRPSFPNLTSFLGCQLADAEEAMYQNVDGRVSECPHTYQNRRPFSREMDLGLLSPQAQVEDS
Dual specificity mitogen-activated protein kinase kinase 6 (Homo sapiens), sequence (P52564 whole entry): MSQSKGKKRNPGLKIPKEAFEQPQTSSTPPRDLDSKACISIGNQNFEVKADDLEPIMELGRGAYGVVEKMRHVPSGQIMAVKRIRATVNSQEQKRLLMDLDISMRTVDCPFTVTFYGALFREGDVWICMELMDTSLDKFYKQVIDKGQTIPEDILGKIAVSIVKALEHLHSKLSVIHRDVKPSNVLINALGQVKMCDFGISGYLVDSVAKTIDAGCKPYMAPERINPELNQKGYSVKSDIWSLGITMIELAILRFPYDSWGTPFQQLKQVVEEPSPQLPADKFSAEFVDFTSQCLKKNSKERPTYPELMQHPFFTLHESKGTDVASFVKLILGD

How did the inhibition [1] turn out when `COc1cc(O)c2c(c1)CCC[C@H](O)[C@H](O)C(=O)CCC[C@H](C)OC2=O` was run?
Its inhibition is over 80%.

And the “inhibition (INH)” value [2]?
The value was “Active”.

And the inhibition [3]?
Its inhibition is over 80%.

And the pIC50 [4]?
The pIC50 was 6.66.

What about the pIC50 [5] of the same molecule?
The pIC50 was 5.56.

And the inhibition [6]?
Its inhibition is “inactive”.

What about the Activity [7] of the same molecule?
The Activity was “Non-Toxic”.

And the inhibition at 10 µM [8]?
Its inhibition at 10 µM is under 40%.

What about the Activity [9] of the same molecule?
The Activity was “Dose-dependent effect”.

And the inhibition [10]?
Its inhibition is over 80%.

And the pIC50 [11]?
The pIC50 was 6.94.

What about the inhibition [12] of the same molecule?
Its inhibition is “Active”.

What about the inhibition at 10 µM [13] of the same molecule?
The inhibition at 10 µM was under 40%.

What about the Activity [14] of the same molecule?
Its Activity is “Active”.

And the inhibition [15]?
The inhibition was “Active”.

And the pIC50 [16]?
The pIC50 was 5.14.

And the inhibition [17]?
Its inhibition is 89%.

What about the pIC50 [18] of the same molecule?
Its pIC50 is under 5.00.

And the pIC50 [19]?
Its pIC50 is 6.14.

And the pIC50 [20]?
Its pIC50 is 6.79.

And the pIC50 [21]?
Its pIC50 is 5.92.

What about the pIC50 [22] of the same molecule?
The pIC50 was 7.21.

And the inhibition [23]?
The inhibition was over 80%.

What about the pIC50 [24] of the same molecule?
The pIC50 was 5.47.

And the Activity [25]?
Its Activity is “Active”.

And the inhibition at 10 µM [26]?
Its inhibition at 10 µM is under 40%.

And the Activity [27]?
The Activity was “Dose-dependent effect”.

And the inhibition [28]?
The inhibition was “Active”.

And the inhibition [29]?
The inhibition was “inactive”.

And the inhibition [30]?
Its inhibition is “inactive”.

And the pIC50 [31]?
The pIC50 was 5.20.

What about the inhibition [32] of the same molecule?
The inhibition was 100%.

What about the Activity [33] of the same molecule?
Its Activity is “Active”.

And the “inhibition (INH)” value [34]?
The value was “Not Active”.

And the inhibition at 10 µM [35]?
Its inhibition at 10 µM is under 40%.

And the pIC50 [36]?
The pIC50 was 7.21.

And the inhibition [37]?
The inhibition was “inactive”.

What about the inhibition [38] of the same molecule?
The inhibition was “Active”.
